Reference: paper PMC7922564, “Molecular Insights into an Antibiotic Enhancer Action of New Morpholine-Containing 5-Arylideneimidazolones in the Fight against MDR Bacteria” (International Journal of Molecular Sciences, 2021)
Like-named read-outs stand apart in the source and are kept apart here.

Assays:
S. aureus MM-O021 = assay: MIC of compounds, S. aureus MM-O021; assay type: cell-based; settings: Staphylococcus aureus; MM-O021 (MRSA)
Method: (§1) Compounds 14–16 were tested further for their adjuvant-like effect with a set of ten additional S. aureus isolates. Firstly, MIC values of the molecules were evaluated in two clinical MSSA isolates (MM-O058, MM-N072), seven MRSA (USA300 LAC, 5328, LG-N017, MM-O021, R45-CC45, R46-CC22, COL) and one VISA strain (Mu50). Detailed results are presented in the Supplementary section (Table S3).
(§2) Determination of MIC values, i.e., intrinsic antibacterial activity, of products and antibiotics (oxacillin, ampicillin, vancomycin, ciprofloxacin, and erythromycin) in the presence and absence of compounds tested was conducted by the use of a standard 2-fold microdilution method in cation-adjusted Mueller Hinton broth following the Clinical and Laboratory Standards Institute (CLSI) guidelines. The MIC values were detected using an Infinite M200 pro Tecan microplate reader (Tecan® France, SA-Lyon, France). MIC determinations were conducted in 96-well microtiter plates and repeated 3–4 times.
(§3) Initially, MICs of a series of imidazolone derivatives were assessed against susceptible (reference) and MDR strains of staphylococci. Next, MIC values of the aforementioned antibiotics were determined in the absence and presence of imidazolone derivatives to assess the chemosensitizing effect of these compounds. […] 5-arylideneimidazolones and 5-arylidenethiazolones, which precipitated after addition to bacterial suspension in MH II medium, were tested at the highest concentrations at which precipitation was not observed. […] Antibacterial activity of compounds and antibiotics ampicillin, vancomycin, ciprofloxacin, and erythromycin was recorded as the lowest concentration of molecules able to inhibit bacterial growth after 18 h incubation at 37 °C. […] The results are presented as activity gain (A) parameter which was calculated as ratio of MIC of a certain antibiotic (MICAnt) to its MICAnt+Comp, observed in combination with a tested compound (7, 12–16, 19, or 20; Equation (1)). […]

S. aureus LG-N017 = assay: MIC reduction assay (antibiotic adjuvant), S. aureus LG-N017; assay type: cell-based, Staphylococcus aureus
Source text: (§4) The adjuvant properties of compounds 14–16 in S. aureus clinical isolates were next tested in combination with oxacillin and the penicillinase-susceptible β-lactam antibiotic, ampicillin. The second β-lactam antibiotic was chosen based on its vulnerability to enzymatic hydrolysis, another important resistance mechanism in S. aureus against penicillin. Therefore, the results of the MIC reduction assay obtained on the activity of arylideneimidazolones combined with oxacillin and ampicillin, respectively, might provide further insights into the possible mechanism of action of the compounds. Complete results are presented in Supplementary (Tables S4 and S5), while condensed in Figure 6, in the case of desired activity noted. […] One possible explanation for the lack of adjuvant activity of compounds in some of the strains selected for this study might be that these strains express PBP2a only when induced by the antibiotic, while others, for which potentiating activity of compounds was observed, produce this protein in high levels straight away.
as §2
(§5) Initially, MICs of a series of imidazolone derivatives were assessed against susceptible (reference) and MDR strains of staphylococci. Next, MIC values of the aforementioned antibiotics were determined in the absence and presence of imidazolone derivatives to assess the chemosensitizing effect of these compounds. […] 5-arylideneimidazolones and 5-arylidenethiazolones, which precipitated after addition to bacterial suspension in MH II medium, were tested at the highest concentrations at which precipitation was not observed. […] Antibacterial activity of compounds and antibiotics ampicillin, vancomycin, ciprofloxacin, and erythromycin was recorded as the lowest concentration of molecules able to inhibit bacterial growth after 18 h incubation at 37 °C. The incubation of bacterial strains exposed to oxacillin paired with compounds tested was conducted at 35 °C and extended to 24 h due to frequent occurrence of heterogeneity among MRSA strains. The results are presented as activity gain (A) parameter which was calculated as ratio of MIC of a certain antibiotic (MICAnt) to its MICAnt+Comp, observed in combination with a tested compound (7, 12–16, 19, or 20; Equation (1)). (1) A=(MICAnt/MICAnt+Comp)

K. aerogenes Ea-289 = assay: MIC reduction assay (antibiotic adjuvant), K. aerogenes Ea-289; assay type: cell-based, Klebsiella aerogenes;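 further: compound at no more than one quarter of its own MIC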
Method: At first, MIC values of compounds were determined (Table S15, Supplementary). Next, their abilities to reduce MICs of the AcrAB-TolC substrates doxycycline (a tetracycline-class antibiotic) and erythromycin were studied (Table S16, Supplementary).
A subset of compounds, namely 7, 12–16, 19, 20, was also examined for the potential to increase the effectiveness of the antibiotics chloramphenicol, erythromycin, doxycycline, and the fluoroquinolone antibiotic norfloxacin, which all are substrates for AcrAB-TolC in K. aerogenes. In addition to strain Ea-289, the adjuvant-like effect of the compounds was investigated in strain CM-64, which also overexpresses the AcrAB-TolC efflux pump, although it has no changes in porin content, and in the Ea-289 derivatives, i.e., Ea-294 and Ea-308, which are devoid of AcrAB (Table S17, Supplementary).
as §5
(§6) MIC values of 5-arylideneimidazolone derivatives were determined following CLSI recommendations as in the methods described for S. aureus (Section 3.3.1).

S. aureus MM-O058 [1] = assay: MIC of compounds, S. aureus MM-O058; assay type: cell-based; settings: Staphylococcus aureus; MM-O058 (MSSA)
Method: as §1, §2, §3

[2] = tested on: AcrAB-TolC efflux pump in K. aerogenes strain Ea-289; assay: Real-time efflux (RTE) assay, 1,2'-dNA extrusion; assay type: cell-based, Klebsiella aerogenes; settings: compound 100 µM; IE=100% total inhibition of efflux
Method: Compounds 7, 12–16, 19, and 20 were also assessed for their EPI property in K. aerogenes strain Ea-289 with the use of a real-time efflux (RTE) assay. Results for compounds 16 and 20 were previously described. The experiment is based on the measurement of the extrusion of a fluorescent dye from bacterial cells overproducing efflux pump transporters in the presence and absence of compounds tested. The dye used in this assay, 1,2’ –dinaphthylamine (1,2’-dNA), is a substrate for the AcrAB-TolC efflux pump, and is strongly fluorescent upon incorporation into a phospholipid bilayer, although it is almost non-fluorescent in an aqueous solution [37, 38].
A likewise strong blocking efficacy (IE = 83 %) was also noticed for compound 12, while the lowest inhibitory effect was found for compound 13 (IE = 23 %).
The inhibitory activity of 5-arylideneimidazolone derivatives towards AcrAB-TolC mediated efflux of 1,2’-dNA was detected in K. aerogenes strain Ea-289 by using a real-time fluorometric method. In a first step, bacterial cells were loaded with the environment-sensitive fluorescent membrane probe, 1,2’-dNA, in the presence of the EPI carbonyl cyanide m-chlorophenylhydrazone (CCCP) which inactivated the pump by dissipating membrane potential. Next, compounds tested were added at the concentration of 100 µM and the efflux was energizing by automated injection of glucose at a dose of 50 µM. The fluorescence intensity was measured in a microplate reader (Tecan) with an excitation wavelength of λex = 370 nm and an emission wavelength of λem = 420 nm.

S. aureus MM-O058 [3] = assay: MIC reduction assay (antibiotic adjuvant), S. aureus MM-O058; assay type: cell-based, Staphylococcus aureus
Source text: as §4, §2, §5

S. aureus MM-N072 [4] = assay: MIC of compounds, S. aureus MM-N072; assay type: cell-based; settings: Staphylococcus aureus; MM-N072 (MSSA)
Method: as §1, §2, §3

[5] = tested on: K. aerogenes Ea-289 (overexpression of AcrAB-TolC); assay: MIC of compounds, K. aerogenes Ea-289; assay type: cell-based; settings: Klebsiella aerogenes
Method: At first, MIC values of compounds were determined (Table S15, Supplementary). Next, their abilities to reduce MICs of the AcrAB-TolC substrates doxycycline (a tetracycline-class antibiotic) and erythromycin were studied (Table S16, Supplementary). […]
as §2, §6

S. aureus MM-N072 [6] = assay: MIC reduction assay (antibiotic adjuvant), S. aureus MM-N072; assay type: cell-based, Staphylococcus aureus
Source text: as §4, §2, §5

[7] = doxycycline, chloramphenicol, norfloxacin, erythromycin
[8] = read-out: MIC value/no precipitation
[9] = read-out: Minimal Inhibitory Concentration (MIC)

Structure (SMILES) | MIC (S. aureus MM-O021) | A (activity gain) (S. aureus LG-N017; ampicillin) | A (activity gain) (S. aureus LG-N017; erythromycin) | A (activity gain) (K. aerogenes Ea-289; doxycycline) | A (activity gain) (K. aerogenes Ea-289; [7]) | A (activity gain) (K. aerogenes Ea-289; erythromycin) | MIC (S. aureus MM-O058 [1]) | Inhibition efficiency (IE) towards extrusion of 1,2'-dNA [2] | A (activity gain) (S. aureus MM-O058 [3]; ampicillin) | A (activity gain) (S. aureus MM-O058 [3]; erythromycin) | MIC (S. aureus MM-N072 [4]) | MIC [5, 8] | MIC [5, 9] | A (activity gain) (S. aureus MM-N072 [6]; ampicillin) | A (activity gain) (S. aureus MM-N072 [6]; erythromycin)
NC1=N/C(=C\c2ccc(-c3ccccc3)cc2)C(=O)N1CCN1CCOCC1 [Compound 14] | ≥ 500 µM | 2 | 1 | 1 | 1 | 1 | ≥ 1000 µM | 57% | 1 | 1 | ≥ 500 µM | > 250 µM | > 2000 µM | 1 | 1
NC1=N/C(=C\c2ccc(-c3ccccc3)cc2)C(=O)N1CCCN1CCOCC1 [Compound 15] | 250 to 500 µM | 1 | 1 | 1 | 1 | 1 | 250 µM | 72% | 1 | 1 | 250 µM | > 250 µM | > 2000 µM | 1 | 1
NC1=N/C(=C\c2cccc(Oc3ccccc3)c2)C(=O)N1CCCN1CCOCC1 [Compound 16] | 250 µM | 1 | 1 | – | – | – | 250 µM | – | 1 | 1 | 250 µM | – | > 2000 µM | 1 | 1
NC1=N/C(=C\c2ccc3c(c2)Cc2ccccc2-3)C(=O)N1CCCN1CCOCC1 [Compound 19] | – | – | – | 1 | 1 | 1 | – | 90% | – | – | – | > 250 µM | > 2000 µM | – | –
